Experimental data: article PMC3093256, “Synthesis of 1-Substituted Carbazolyl-1,2,3,4-tetrahydro- and Carbazolyl-3,4-dihydro-β-carboline Analogs as Potential Antitumor Agents” (Marine Drugs, 2011)
≈ marks a conversion by molar mass, not a printed value.

How the values were obtained:
[1] = target: T1, human DNA topoisomerase I (Homo sapiens, UniProt P11387); experiment: Relaxation assay of topoisomerase I (supercoiled pBR322); type: biochemical; conditions: five concentrations 5, 10, 25, 50 and 100 μg/mL; read-out: Inhibition of DNA topoisomerase I IC50 (converted)
T1 construct: purchased TopoGen
T1 sequence (P11387 1-765): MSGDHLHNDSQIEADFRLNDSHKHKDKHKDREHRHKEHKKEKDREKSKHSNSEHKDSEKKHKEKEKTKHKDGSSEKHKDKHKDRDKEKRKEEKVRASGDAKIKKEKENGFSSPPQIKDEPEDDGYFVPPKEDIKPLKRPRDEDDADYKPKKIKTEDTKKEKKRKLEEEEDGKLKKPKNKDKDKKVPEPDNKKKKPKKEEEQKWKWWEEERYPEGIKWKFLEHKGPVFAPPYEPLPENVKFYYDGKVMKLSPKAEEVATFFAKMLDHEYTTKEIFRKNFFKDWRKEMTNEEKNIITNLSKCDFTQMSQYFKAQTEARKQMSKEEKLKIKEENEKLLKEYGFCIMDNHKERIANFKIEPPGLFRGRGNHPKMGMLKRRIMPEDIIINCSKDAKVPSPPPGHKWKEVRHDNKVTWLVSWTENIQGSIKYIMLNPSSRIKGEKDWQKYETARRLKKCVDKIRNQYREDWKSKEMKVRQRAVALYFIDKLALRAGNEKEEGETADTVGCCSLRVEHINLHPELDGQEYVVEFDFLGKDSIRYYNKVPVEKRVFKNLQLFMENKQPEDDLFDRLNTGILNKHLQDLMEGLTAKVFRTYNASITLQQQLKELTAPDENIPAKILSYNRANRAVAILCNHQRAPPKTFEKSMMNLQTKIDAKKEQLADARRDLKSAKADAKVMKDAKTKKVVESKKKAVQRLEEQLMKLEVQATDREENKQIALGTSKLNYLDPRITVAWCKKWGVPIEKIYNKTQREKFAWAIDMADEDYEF
Protocol: (§1) Topoisomerases I and II (topo I and II) assays were measured by assessing relaxation of supercoiled pBR322 plasmid DNA according to [24]. […] In summary, topo I (TopoGen) was mixed with the test sample and 10° volume of assay buffer (100 mM Tris-HCl, 10 mM EDTA, 1.5 M NACl, 1.0% BSA, […], and 50% glycerol), and then supercoiled DNA (pBR322) was added. In topo II assay, the mixture contained test sample and buffer including 50 mM Tris-HCl, 120 mM KCl, 10 mM MgCl2, 0.5 mM ATP, 0.5 mM dithiothreitol, 2 μg BSA, pBR322 plasmid DNA (0.25 μg), and 3U of topo II (TopoGen) in final volume of 20 μL. After incubation of topo I or topo II mixture for 30 min at 37 °C, 2 λ 10% SDS and 2.5 λ proteinase K were added for 1 h. The reaction mixtures were electrophoresed on a 2% agarose gel (50 V, 20 min; 100 V, 30 min; 110 V, 30 min) and stained with ethidium bromide. Finally, by a densitometer of ImageMaster® (Fujifilm thermal imaging system, FTI-500), the gels were directly scanned and the area representing supercoiled DNA was calculated.

[2] = system: NCI-H661 (human lung large cell carcinoma); experiment: Cytotoxicity assay, NCI-H661 cells; type: cell-based; conditions: 72 h, 3 days incubation, by interpolation
Protocol: (§2) The cytotoxic activities of compounds against KB (human mouth epidermoid carcinoma), DLD (human colon adenocarcinoma), NCI-H661 (human lung large cell carcinoma), Hepa (human hepatoma), and HepG2/A2 (human hepatoblastoma) cells were assayed by the […] assay as previously described. The cells for assay were cultured in RPMI-1640 medium supplemented with […] in an incubator at 37 °C. The cytotoxicity assay depends on the binding of methylene blue to fixed monolayers of cells at pH 8.5, washing the monolayer, and releasing the dye by lowering the pH value. Samples and control standard drugs were prepared at a concentration of 1, 10, 40, and 100 μg/mL. After seeding 2880 cells/well in a 96-well microplate for 3 h, 20 μL of sample or standard agent was placed in each well and incubated at 37 °C for 3 days. After removing the medium from the microplates, the cells were fixed with 10% formaldehyde in 0.9% saline for 30 min, then dyed with 1% (w/v) methylene blue in 0.01 M borate-buffer (100 μL/well) for 30 min. The 96-well plate was dipped into a 0.01 M borate-buffer solution four times in order to remove the dye. Then, 100 μL/well of EtOH-0.1 M HCl (1:1) was added as a dye eluting solvent, and the absorbance was measured on a microtiter plate reader (Dynatech, MR 7000) at a wavelength of 650 nm. […] Doxorubicin was used as a standard compound.

[3] = system: KB (human mouth epidermoid carcinoma); experiment: Cytotoxicity assay, KB cells; type: cell-based; conditions: 72 h, 3 days incubation, by interpolation
Protocol: as §2

[4] = system: Hepa (human hepatoma); experiment: Cytotoxicity assay, Hepa cells; type: cell-based; conditions: 72 h, 3 days incubation, by interpolation
Protocol: as §2

[5] = system: DLD (human colon adenocarcinoma); experiment: Cytotoxicity assay, DLD cells; type: cell-based; conditions: Homo sapiens, 72 h, 3 days incubation, by interpolation
Protocol: as §2

[6] = system: HepG2/A2 (human hepatoma); experiment: Cytotoxicity assay, HepG2/A2 cells; type: cell-based; conditions: Homo sapiens, 72 h; HepG2/A2 cells, 3 days incubation, by interpolation
Protocol: as §2

[7] = target: T2, human DNA topoisomerase II (Homo sapiens, UniProt P11388); experiment: Relaxation assay of topoisomerase II (supercoiled pBR322); type: biochemical; conditions: for IC50: five concentrations 5, 10, 25, 50 and 100 μg/mL, read-out: Inhibition of DNA topoisomerase II IC50 (converted)
T2 construct: purchased TopoGen
Protocol: as §1

[8] = system: human tumor cell lines; experiment: Cytotoxicity assay, tumor cell panel (cell line not specified); type: cell-based; conditions: positive control
Protocol: The cytotoxic activities of compounds against KB (human mouth epidermoid carcinoma), DLD (human colon adenocarcinoma), NCI-H661 (human lung large cell carcinoma), Hepa (human hepatoma), and HepG2/A2 (human hepatoblastoma) cells were assayed by the MTT{3-(4,5-dimethylthiazole-2-yl)-2,5-diphenyltetrazolium bromide} colorimetric assay as previously described. The cells for assay were cultured in RPMI-1640 medium supplemented with […] in an incubator at 37 °C. The cytotoxicity assay depends on the binding of methylene blue to fixed monolayers of cells at pH 8.5, washing the monolayer, and releasing the dye by lowering the pH value. Samples and control standard drugs were prepared at a concentration of 1, 10, 40, and 100 μg/mL. After seeding 2880 cells/well in a 96-well microplate for 3 h, 20 μL of sample or standard agent was placed in each well and incubated at 37 °C for 3 days. After removing the medium from the microplates, the cells were fixed with 10% formaldehyde in 0.9% saline for 30 min, then dyed with 1% (w/v) methylene blue in 0.01 M borate-buffer (100 μL/well) for 30 min. The 96-well plate was dipped into a 0.01 M borate-buffer solution four times in order to remove the dye. Then, 100 μL/well of EtOH-0.1 M HCl (1:1) was added as a dye eluting solvent, and the absorbance was measured on a microtiter plate reader (Dynatech, MR 7000) at a wavelength of 650 nm. […]

T2 sequence (P11388 whole entry): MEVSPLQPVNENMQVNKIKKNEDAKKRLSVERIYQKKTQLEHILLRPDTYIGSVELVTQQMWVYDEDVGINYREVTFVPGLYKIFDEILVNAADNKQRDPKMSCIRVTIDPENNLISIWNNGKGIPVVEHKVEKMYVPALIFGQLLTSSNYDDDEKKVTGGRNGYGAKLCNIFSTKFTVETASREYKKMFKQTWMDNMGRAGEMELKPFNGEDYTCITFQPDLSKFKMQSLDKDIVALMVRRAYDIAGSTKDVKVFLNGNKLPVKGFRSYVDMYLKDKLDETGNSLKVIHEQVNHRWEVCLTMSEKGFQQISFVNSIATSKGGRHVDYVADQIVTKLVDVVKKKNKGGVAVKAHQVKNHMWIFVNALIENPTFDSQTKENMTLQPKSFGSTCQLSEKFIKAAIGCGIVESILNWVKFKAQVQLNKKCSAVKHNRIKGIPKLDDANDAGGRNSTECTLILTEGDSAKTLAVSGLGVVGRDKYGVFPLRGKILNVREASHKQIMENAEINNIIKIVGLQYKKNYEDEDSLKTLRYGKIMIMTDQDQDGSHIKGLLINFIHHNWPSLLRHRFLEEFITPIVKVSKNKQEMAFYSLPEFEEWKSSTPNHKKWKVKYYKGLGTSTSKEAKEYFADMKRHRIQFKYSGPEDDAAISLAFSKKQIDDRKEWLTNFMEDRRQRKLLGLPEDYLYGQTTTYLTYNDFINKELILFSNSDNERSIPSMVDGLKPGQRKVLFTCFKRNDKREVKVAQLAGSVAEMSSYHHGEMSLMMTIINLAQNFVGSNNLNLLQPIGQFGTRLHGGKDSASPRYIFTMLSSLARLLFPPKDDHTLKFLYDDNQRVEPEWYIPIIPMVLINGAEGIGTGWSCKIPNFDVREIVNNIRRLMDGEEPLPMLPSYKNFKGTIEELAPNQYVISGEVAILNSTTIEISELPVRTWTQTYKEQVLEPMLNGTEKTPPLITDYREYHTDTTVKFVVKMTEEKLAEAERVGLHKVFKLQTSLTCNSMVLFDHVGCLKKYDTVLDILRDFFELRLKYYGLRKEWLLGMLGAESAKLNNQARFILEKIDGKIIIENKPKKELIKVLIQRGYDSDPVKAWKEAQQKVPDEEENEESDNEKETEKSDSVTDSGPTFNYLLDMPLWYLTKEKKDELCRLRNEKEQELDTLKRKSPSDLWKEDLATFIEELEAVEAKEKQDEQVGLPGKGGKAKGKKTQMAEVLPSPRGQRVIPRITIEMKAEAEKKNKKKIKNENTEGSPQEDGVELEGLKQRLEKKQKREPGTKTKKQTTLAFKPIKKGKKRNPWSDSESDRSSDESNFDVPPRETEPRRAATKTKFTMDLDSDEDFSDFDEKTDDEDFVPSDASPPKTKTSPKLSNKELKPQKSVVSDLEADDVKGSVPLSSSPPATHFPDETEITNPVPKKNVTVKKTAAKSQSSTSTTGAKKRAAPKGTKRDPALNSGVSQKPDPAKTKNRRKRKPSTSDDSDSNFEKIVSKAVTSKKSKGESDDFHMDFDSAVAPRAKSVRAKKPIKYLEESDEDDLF

Question: Which results are given for `CCCCCCCCCCCCCCCCn1c2ccccc2c2cc(C3=NCCc4c3[nH]c3ccccc43)ccc21` [Compound 16, 1-(9′-Hexadecyl-3′-carbazolyl)-3,4-dihydro-β-carboline]?
Answer: melting point: 90 to 92 °C; IC50 [1]: > 179 µM; IC50 [2]: > 20 µg/mL; IC50 [3]: > 20 µg/mL; IC50 [4]: > 20 µg/mL; IC50 [5]: > 20 µg/mL; IC50 [6]: > 60 µg/mL; IC50 [7]: > 179 µM

Question: Which melting point does the source give for `CCCCCCCCCCCCCCCCCCCCn1c2ccccc2c2cc(C3=NCCc4c3[nH]c3ccccc43)ccc21` [Compound 18, 1-(9′-Eicosyl-3′-carbazolyl)-3,4-dihydro-β-carboline] here?
Answer: 91 to 93 °C

Question: And the IC50 [1]?
Answer: > 162 µM

Question: What about the IC50 [2] of the same compound?
Answer: > 20 µg/mL

Question: What about the IC50 [3] of the same compound?
Answer: > 20 µg/mL

Question: What about the IC50 [4] of the same compound?
Answer: > 20 µg/mL

Question: What about the IC50 [5] of the same compound?
Answer: > 20 µg/mL

Question: And the IC50 [6]?
Answer: > 60 µg/mL

Question: And the “inhibition of DNA topoisomerase II (in words)” value ([7]; compared with etoposide)?
Answer: great activity

Question: And the IC50 [7]?
Answer: 9.09 µM

Question: Which IC50 [8] does the source give for `COc1cccc2c1C(=O)c1c(O)c3c(c(O)c1C2=O)C[C@@](O)(C(=O)CO)C[C@@H]3O[C@H]1C[C@H](N)[C@H](O)[C@H](C)O1` [Doxorubicin] here?
Answer: 0.1 µg/mL (≈ 0.184 µM)
